According to article PMC3870792 (Neuropsychopharmacology, 2013):

Target: GABAA receptor α2 subunit (α2β3γ2 GABAAR) (Rattus norvegicus, UniProt P18508+P23576)
Test: [3H]Ro […]-4513 displacement on HEK293 membranes
Format: binding

GABAA receptor α2 subunit (α2β3γ2 GABAAR), sequence (P23576 29-451): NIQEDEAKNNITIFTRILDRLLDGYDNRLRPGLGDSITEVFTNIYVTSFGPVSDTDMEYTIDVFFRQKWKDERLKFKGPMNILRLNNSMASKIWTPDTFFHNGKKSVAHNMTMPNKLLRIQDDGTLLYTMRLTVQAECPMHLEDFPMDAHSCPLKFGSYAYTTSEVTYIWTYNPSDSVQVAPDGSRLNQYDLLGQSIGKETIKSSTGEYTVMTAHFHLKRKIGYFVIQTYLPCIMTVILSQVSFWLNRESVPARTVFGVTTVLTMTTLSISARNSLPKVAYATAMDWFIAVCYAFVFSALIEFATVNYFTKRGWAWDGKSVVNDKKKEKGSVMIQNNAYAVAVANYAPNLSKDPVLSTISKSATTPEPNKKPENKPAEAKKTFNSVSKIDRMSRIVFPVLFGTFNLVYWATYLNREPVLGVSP
GABAA receptor α2 subunit (α2β3γ2 GABAAR), sequence (P18508 39-466): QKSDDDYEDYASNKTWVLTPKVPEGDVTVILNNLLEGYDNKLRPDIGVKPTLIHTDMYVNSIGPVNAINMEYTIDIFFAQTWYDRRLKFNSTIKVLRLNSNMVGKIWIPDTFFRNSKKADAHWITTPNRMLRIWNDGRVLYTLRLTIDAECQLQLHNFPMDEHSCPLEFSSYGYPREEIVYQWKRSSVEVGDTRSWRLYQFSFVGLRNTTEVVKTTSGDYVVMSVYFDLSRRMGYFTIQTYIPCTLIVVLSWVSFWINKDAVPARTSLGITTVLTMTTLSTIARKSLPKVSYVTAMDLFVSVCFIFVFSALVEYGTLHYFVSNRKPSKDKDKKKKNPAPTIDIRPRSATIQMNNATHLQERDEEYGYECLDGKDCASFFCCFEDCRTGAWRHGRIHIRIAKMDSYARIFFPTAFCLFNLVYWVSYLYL
GABAA receptor α2 subunit (α2β3γ2 GABAAR), sequence (P63079 26-473 partner): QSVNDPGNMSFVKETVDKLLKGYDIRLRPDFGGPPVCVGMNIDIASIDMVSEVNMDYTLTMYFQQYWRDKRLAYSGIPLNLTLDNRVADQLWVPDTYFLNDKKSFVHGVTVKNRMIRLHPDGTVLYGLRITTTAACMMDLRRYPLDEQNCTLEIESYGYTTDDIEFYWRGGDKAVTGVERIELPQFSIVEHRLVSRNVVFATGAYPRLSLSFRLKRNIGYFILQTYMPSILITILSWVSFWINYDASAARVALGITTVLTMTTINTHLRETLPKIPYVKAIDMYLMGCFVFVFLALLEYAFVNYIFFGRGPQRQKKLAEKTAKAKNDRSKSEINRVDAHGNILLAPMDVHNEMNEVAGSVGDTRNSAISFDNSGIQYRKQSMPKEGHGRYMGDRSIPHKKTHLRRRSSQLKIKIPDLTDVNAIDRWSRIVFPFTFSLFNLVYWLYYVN

C#Cc1ccc2c(c1)C(c1ccccn1)=NCc1c(C(=O)OCC)ncn1-2 [compound 2 in Rivas et al, 2009, ethyl 8-ethynyl-6-(pyridin-2-yl)-4H-benzo[f]imidazo[1,5-a][1,4]diazepine-3-carboxylate]
Ki: 221 ± 22 nM
